Here are results for ten molecules from ChEMBL document CHEMBL1201862, “PubChem BioAssay data set” (2004).

Each structure is given as a SMILES string.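 Compound exposure: 48 hours, 5 concentrations, 96-well plates. Here, GI50 denotes the concentration required for 50% inhibition of growth.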 Active and inactive are the calls of the source. Cut-off read from the data, not from the text of the source: active = GI50 up to about 1.1 µM and inactive = higher.

Test systems include MDA-MB-435; OVCAR-3; 786-0; A549; NCI-H460; KM12; MDA-MB-231; NCI-H226; UO-31; MOLT-4; EKVX; SF-295; T47D; MCF7; SW-620; NCI/ADR-RES; SK-OV-3; NCI-H23; SNB-19; K562.
Common to all, as to test: growth of human tumour cells (NCI), 48 h

In the case of `CC(C)(C)OC(=O)NCC(c1c[nH]c2ccccc12)c1c[nH]c2ccccc12`, the GI50 was 15.7 µM (inactive) with MDA-MB-435; 15.3 µM (inactive) in the assay on OVCAR-3; 16.1 µM (inactive) in the assay on 786-0; 14.6 µM (inactive) in the assay with A549; 14.9 µM (inactive) in the assay with NCI-H460; 13.3 µM (inactive) in the assay on KM12. For the same molecule, the GI50 was 16 µM (inactive) in the assay with MDA-MB-231; 21 µM (inactive) with NCI-H226; 14.1 µM (inactive) in the assay on UO-31; 11.7 µM (inactive) in the assay on MOLT-4; 12.7 µM (inactive) in the assay on EKVX; 15.6 µM (inactive) with SF-295. Further, the GI50 in the assay with T47D was 17 µM (inactive); in the assay with MCF7, 67.5 µM (inactive); with SW-620 it was 17 µM (inactive); in the assay with NCI/ADR-RES, 19.4 µM (inactive); with SK-OV-3, 16.8 µM (inactive); with NCI-H23, 18.4 µM (inactive). The GI50 in the assay with SNB-19 was 16.9 µM (inactive).
Consider `N#Cc1sc2c(c1OC(=O)c1ccco1)c(=O)n(-c1ccccc1)c(=S)n2-c1ccccc1`, for which the GI50 in the assay with MDA-MB-435 is 27.7 µM (inactive); with OVCAR-3 it was 24.8 µM (inactive); in the assay on 786-0 it was 31.1 µM (inactive); in the assay on A549, 35.9 µM (inactive); with NCI-H460 it was 32 µM (inactive); with KM12, 30.3 µM (inactive). Further, the GI50 is 26.5 µM (inactive) in the assay on MDA-MB-231; 15 µM (inactive) with K562; 34.3 µM (inactive) with NCI-H226; 16 µM (inactive) in the assay with UO-31; 13.8 µM (inactive) in the assay with MOLT-4; 52.6 µM (inactive) with EKVX. The GI50 in the assay on SF-295 is 26.7 µM (inactive); with T47D, 21.1 µM (inactive); in the assay on MCF7, 31.2 µM (inactive); in the assay with SW-620, 17.7 µM (inactive); in the assay on NCI/ADR-RES, 26.6 µM (inactive); with SK-OV-3, 27.7 µM (inactive). The GI50 with NCI-H23 is 34.8 µM (inactive); in the assay on SNB-19, 36.4 µM (inactive).
In the case of `CCCCCCCC(CC(=O)O)OC(=O)CC(CCCCCCC)OC1OC(C)C(O)C(O)C1OC1OC(C)C(O)C(O)C1O` (centres undefined), the GI50 in the assay with MDA-MB-435, in the assay on OVCAR-3, in the assay with 786-0, with A549, in the assay on NCI-H460 and with KM12 was > 100 µM (inactive) each time. Moreover, the GI50 was > 100 µM (inactive) in the assay on MDA-MB-231; 72.1 µM (inactive) with K562; > 100 µM (inactive) in the assay with NCI-H226; > 100 µM (inactive) in the assay on UO-31; > 100 µM (inactive) in the assay with MOLT-4; > 100 µM (inactive) in the assay on EKVX. Moreover, the GI50 in the assay on SF-295, in the assay on T47D, in the assay on MCF7, with SW-620, in the assay on NCI/ADR-RES and with SK-OV-3 was > 100 µM (inactive) throughout. Moreover, the GI50 with NCI-H23 and in the assay with SNB-19 was > 100 µM (inactive) throughout.
In the case of `C/C(=N\NC(N)=S)C(CN1CCCCC1)C(C1=C(O)c2ccccc2OC1)c1ccccc1` (centres undefined), the GI50 was > 100 µM (inactive) in the assay with MDA-MB-435; 82.4 µM (inactive) in the assay with OVCAR-3; > 100 µM (inactive) in the assay with 786-0; > 100 µM (inactive) with A549; > 100 µM (inactive) in the assay with NCI-H460; > 100 µM (inactive) with KM12. The GI50 was > 100 µM (inactive) in the assay with MDA-MB-231; > 100 µM (inactive) in the assay with NCI-H226; > 100 µM (inactive) with UO-31; 64 µM (inactive) in the assay with MOLT-4; > 100 µM (inactive) with EKVX; > 100 µM (inactive) in the assay with SF-295. The GI50 with T47D is 79.6 µM (inactive); in the assay on MCF7, > 100 µM (inactive); in the assay on SW-620, > 100 µM (inactive); with NCI/ADR-RES, > 100 µM (inactive); in the assay with SK-OV-3, > 100 µM (inactive); with NCI-H23, > 100 µM (inactive). In addition, in the assay on SNB-19, the GI50 is > 100 µM (inactive).
`COc1ccc(N2C(=O)/C(=C/c3ccc(N(CCC#N)CCC#N)cc3)N=C2c2ccccc2)cc1`: the GI50 in the assay on MDA-MB-435, in the assay on OVCAR-3, in the assay with 786-0, with A549, in the assay on NCI-H460 and with KM12 was > 100 µM (inactive) each time. Moreover, the GI50 in the assay on MDA-MB-231, in the assay on K562, with NCI-H226, with UO-31, in the assay with MOLT-4 and in the assay with EKVX was > 100 µM (inactive) throughout. In addition, the GI50 in the assay with SF-295, with T47D, in the assay on MCF7, in the assay with SW-620, in the assay on NCI/ADR-RES and in the assay with SK-OV-3 was > 100 µM (inactive) throughout. Besides, the GI50 in the assay on SNB-19 was > 100 µM (inactive).
Consider `COc1cc2oc(=O)ccc2cc1C(=O)CC(C)C`, for which the GI50 in the assay on MDA-MB-435 is > 100 µM (inactive); in the assay with OVCAR-3, > 100 µM (inactive); with 786-0, > 100 µM (inactive); in the assay with A549, > 100 µM (inactive); in the assay on NCI-H460 it was 62.5 µM (inactive); in the assay on KM12 it was > 100 µM (inactive). The GI50 in the assay with MDA-MB-231 was > 100 µM (inactive); with K562, > 100 µM (inactive); with NCI-H226, 28.6 µM (inactive); in the assay on UO-31, > 100 µM (inactive); in the assay with MOLT-4, 57.8 µM (inactive); in the assay with EKVX, 94.8 µM (inactive). Further, the GI50 in the assay on SF-295 was > 100 µM (inactive); in the assay on T47D, > 100 µM (inactive); with MCF7, 73.8 µM (inactive); in the assay on SW-620, > 100 µM (inactive); with NCI/ADR-RES, 66.4 µM (inactive); in the assay on SK-OV-3, > 100 µM (inactive). The values for the GI50 in the assay on NCI-H23 and in the assay with SNB-19 were > 100 µM (inactive) and 56.1 µM (inactive), respectively.
In the case of `O=C1N(CN2CCOCC2)CN(CN2CCOCC2)C(=O)N1Cc1ccc(CN2C(=O)N(CN3CCOCC3)CN(CN3CCOCC3)C2=O)cc1`, the GI50 in the assay with MDA-MB-435 was 26.4 µM (inactive); in the assay on OVCAR-3, 31.6 µM (inactive); in the assay with 786-0, 28.8 µM (inactive); in the assay with A549 it was 40.2 µM (inactive); in the assay with NCI-H460 it was 36.9 µM (inactive); with KM12, 48.1 µM (inactive). In addition, the GI50 with MDA-MB-231 was 57.9 µM (inactive); with NCI-H226, > 100 µM (inactive); in the assay on UO-31, 44.4 µM (inactive); with MOLT-4 it was 35.2 µM (inactive); in the assay on EKVX, > 100 µM (inactive); in the assay with SF-295, > 100 µM (inactive). For the same molecule, the GI50 in the assay on T47D is 53 µM (inactive); in the assay with MCF7 it was 38.9 µM (inactive); with SW-620 it was 43 µM (inactive); in the assay on NCI/ADR-RES it was 49.9 µM (inactive); in the assay on SK-OV-3, > 100 µM (inactive); with NCI-H23, 34.4 µM (inactive). Moreover, the GI50 in the assay with SNB-19 is 97.7 µM (inactive).
Take `Clc1ccc(Cn2cc(/C=N/n3cnnc3)c3ccccc32)cc1`: the GI50 is 83.9 µM (inactive) with MDA-MB-435; 86.5 µM (inactive) with OVCAR-3; 57.9 µM (inactive) in the assay with 786-0; 41.8 µM (inactive) in the assay with A549; 11.1 µM (inactive) with NCI-H460; 70.3 µM (inactive) in the assay on KM12. The GI50 was 20.4 µM (inactive) in the assay with MDA-MB-231; 22.5 µM (inactive) in the assay on K562; 1.1 µM (active) in the assay on NCI-H226; 30.5 µM (inactive) in the assay with UO-31; 63.8 µM (inactive) with MOLT-4; 20.6 µM (inactive) in the assay with EKVX. Also, the GI50 in the assay with SF-295 was 33.3 µM (inactive); with T47D, 11.8 µM (inactive); in the assay on MCF7, 28.4 µM (inactive); in the assay on SW-620, > 100 µM (inactive); in the assay on NCI/ADR-RES, 35 µM (inactive); in the assay with SK-OV-3 it was 42.6 µM (inactive). In addition, the GI50 in the assay on NCI-H23 was 29.3 µM (inactive); in the assay on SNB-19 it was 56 µM (inactive).
`N=C(N)C1CN(CCCCCCCCCCN2CC(C(=N)N)C(O)=NC2=O)C(=O)N=C1O` (centres undefined): the GI50 with MDA-MB-435, with OVCAR-3, in the assay with 786-0, with A549, with NCI-H460 and in the assay on KM12 was > 10 µM (inactive) each time. The GI50 in the assay with MDA-MB-231, in the assay on K562, in the assay with NCI-H226, in the assay on MOLT-4, in the assay on EKVX and in the assay on SF-295 was > 10 µM (inactive) in each case. Moreover, the GI50 in the assay with T47D, with MCF7, in the assay on SW-620, in the assay with NCI/ADR-RES, with SK-OV-3 and in the assay on NCI-H23 was > 10 µM (inactive) each time. For the same molecule, the GI50 in the assay with SNB-19 was > 10 µM (inactive).
As to `COc1cc2c(cc1OC)-c1cc3ccc(OC)c(OC)c3c[n+]1CC2` [PALMATINE CHLORIDE], the GI50 is > 100 µM (inactive) in the assay on MDA-MB-435; 39.9 µM (inactive) in the assay on OVCAR-3; > 100 µM (inactive) in the assay on 786-0; > 100 µM (inactive) with A549; > 100 µM (inactive) in the assay on NCI-H460; > 100 µM (inactive) with KM12. Also, the GI50 is > 100 µM (inactive) in the assay with MDA-MB-231; 52.4 µM (inactive) in the assay with K562; > 100 µM (inactive) with NCI-H226; > 100 µM (inactive) in the assay with UO-31; > 100 µM (inactive) with MOLT-4; > 100 µM (inactive) in the assay on EKVX. In addition, the GI50 was > 100 µM (inactive) in the assay on SF-295; 83.4 µM (inactive) in the assay on T47D; > 100 µM (inactive) in the assay on MCF7; > 100 µM (inactive) with SW-620; > 100 µM (inactive) in the assay on NCI/ADR-RES; > 100 µM (inactive) with SK-OV-3. In the assay on SNB-19, the GI50 was 15.5 µM (inactive).
